According to patent US20220119383A1 (Gilead Sciences, Inc., priority 2018, published 2022):

Molecular target: T1, α4β7 integrin (Homo sapiens, UniProt P13612+P26010)
T1 construct: monitoring the capture of α4β7 integrin expressing cells; endogenous in cells; host or cells: RPMI8866 cells
T1 sequence (P13612 34-1032): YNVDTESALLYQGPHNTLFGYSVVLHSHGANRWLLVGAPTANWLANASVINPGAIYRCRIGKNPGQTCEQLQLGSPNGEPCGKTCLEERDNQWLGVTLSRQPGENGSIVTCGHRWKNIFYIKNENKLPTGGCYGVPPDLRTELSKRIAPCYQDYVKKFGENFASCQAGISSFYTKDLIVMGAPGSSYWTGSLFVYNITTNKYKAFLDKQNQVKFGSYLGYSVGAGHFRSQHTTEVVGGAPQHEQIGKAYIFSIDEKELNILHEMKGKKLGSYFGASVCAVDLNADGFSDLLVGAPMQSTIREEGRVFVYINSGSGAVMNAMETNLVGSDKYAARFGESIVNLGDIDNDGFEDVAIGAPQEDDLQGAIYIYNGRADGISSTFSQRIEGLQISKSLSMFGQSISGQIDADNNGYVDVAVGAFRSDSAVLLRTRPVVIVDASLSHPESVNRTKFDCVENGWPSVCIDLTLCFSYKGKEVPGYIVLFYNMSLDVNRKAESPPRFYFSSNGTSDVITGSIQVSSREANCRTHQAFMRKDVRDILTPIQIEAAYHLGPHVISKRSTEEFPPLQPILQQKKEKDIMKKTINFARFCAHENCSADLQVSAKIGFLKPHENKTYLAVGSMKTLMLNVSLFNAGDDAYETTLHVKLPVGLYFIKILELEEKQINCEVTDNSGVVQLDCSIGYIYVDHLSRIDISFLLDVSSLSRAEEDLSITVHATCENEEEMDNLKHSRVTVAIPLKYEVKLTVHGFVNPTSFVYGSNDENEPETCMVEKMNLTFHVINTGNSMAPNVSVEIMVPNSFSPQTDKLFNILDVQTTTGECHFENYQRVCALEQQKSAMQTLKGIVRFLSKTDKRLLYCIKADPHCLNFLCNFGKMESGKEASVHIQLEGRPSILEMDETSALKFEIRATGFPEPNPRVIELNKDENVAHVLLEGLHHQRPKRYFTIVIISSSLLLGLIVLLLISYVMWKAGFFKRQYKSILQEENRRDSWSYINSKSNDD
T1 sequence (P26010 20-798): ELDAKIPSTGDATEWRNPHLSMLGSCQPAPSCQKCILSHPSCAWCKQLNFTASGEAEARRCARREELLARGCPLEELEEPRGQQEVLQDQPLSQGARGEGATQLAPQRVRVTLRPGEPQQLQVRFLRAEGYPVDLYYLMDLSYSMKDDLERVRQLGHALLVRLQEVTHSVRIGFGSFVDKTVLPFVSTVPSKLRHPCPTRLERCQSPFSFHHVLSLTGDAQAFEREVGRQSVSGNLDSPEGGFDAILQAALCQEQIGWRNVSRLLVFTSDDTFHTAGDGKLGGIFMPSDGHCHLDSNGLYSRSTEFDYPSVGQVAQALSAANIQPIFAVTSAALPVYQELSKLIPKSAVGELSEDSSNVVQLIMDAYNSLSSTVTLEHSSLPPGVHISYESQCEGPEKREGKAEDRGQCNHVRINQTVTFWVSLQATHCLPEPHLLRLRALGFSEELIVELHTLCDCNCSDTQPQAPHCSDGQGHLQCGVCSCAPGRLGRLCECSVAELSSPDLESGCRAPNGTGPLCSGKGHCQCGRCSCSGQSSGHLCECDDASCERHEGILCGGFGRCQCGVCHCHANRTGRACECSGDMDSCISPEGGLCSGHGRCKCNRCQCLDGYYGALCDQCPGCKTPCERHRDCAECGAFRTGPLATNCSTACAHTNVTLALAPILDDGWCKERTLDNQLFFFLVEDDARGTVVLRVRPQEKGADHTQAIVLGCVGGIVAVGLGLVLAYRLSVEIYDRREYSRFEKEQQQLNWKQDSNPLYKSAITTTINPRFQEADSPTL
Experiment: α4β7 integrin cell capture assay
Assay type: cell-based
Method: The potency of inhibitors in preventing α4β7 integrin interaction with MadCAM-1 was measured by monitoring the capture of α4β7 integrin expressing cells on a recombinant MadCAM-1 extracellular domain-coated plate. […] The plates were then washed with PBS and blocked with 3% BSA for 2 hours before being washed again.
RPM18866 cells were spun down and re-suspended in assay medium (DMEM+0.5% FBS+0.5 mM MnCl2) at a density of 0.5×10^6 cells/mL. […] The plates were incubated at 37° C. for 1 hour. 50 μL of cells were transferred to the blocked, MadCAM-1-coated plates and incubated for 30 minutes at 37° C. […] The plates were incubated for 90 minutes at room temperature. The plates were then washed 3 times with 70 μL of PBS per well and imaged on a Cellomics ArrayScan instrument. The cells that were bound to the plate were counted and plotted against the compound concentration to determine the EC50 of the test compounds.

[1] = Table 1, capture of RPM18866 cells on MadCAM-1 extracellular domain-coated plate
[2] = Table 2, capture of RPM18866 cells on MadCAM-1 extracellular domain-coated plate

## O=C(N[C@@H](Cc1ccc(-c2cccc3c2OCCO3)c2ncccc12)C(=O)O)c1c(F)cc(NS(=O)(=O)c2ccc(-c3ccnc(F)c3)cc2)cc1F [Example 51]
[1]
  EC50: 2.9 nM

## CC[C@@H](Nc1cc(F)c(C(=O)N[C@@H](Cc2ccc(-c3c(C(F)(F)F)c4cc(F)ccc4n(C)c3=O)c3ncccc23)C(=O)O)c(F)c1)C(F)(F)F [Example 124]
[1]
  EC50: 0.6 nM

## Cc1cc(N2CCOC[C@@H]2C(F)(F)F)cc(F)c1C(=O)N[C@@H](Cc1ccc(-n2c(=O)c3cccnc3n(C)c2=O)c2ncccc12)C(=O)O [Example 402]
Capture of α4β7 integrin expressing RPM18866 cells on MadCAM-1 extracellular domain-coated plate
  EC50: 0.1 nM

## (S)-3-(8-(2-chloro-4-cyanophenyl)quinolin-5-yl)-2-(2,6-difluoro-4-((R)-3-(trifluoromethyl)morpholino)benzamido)propanoic acid [Example 148]
[1]
  EC50: 60.6 nM

## N#Cc1ccc(-c2ccc(C[C@H](NC(=O)c3c(F)cc(N4CCOC[C@@H]4C(F)(F)F)cc3F)C(=O)O)c3cccnc23)c(Cl)c1 (single isomer, unassigned) [Example 82]
[1]
  EC50: 4.7 nM

## N#Cc1ccc(-c2ccc(C[C@H](NC(=O)c3c(F)cc(NC(C4CC4)C(F)(F)F)cc3F)C(=O)O)c3cccnc23)c(Cl)c1 (some centres unmarked) [Example 89]
[1]
  EC50: 14.4 nM

## Cc1c(-c2ccc(C[C@H](NC(=O)c3c(F)cc(N[C@H](C)C(F)(F)F)cc3F)C(=O)O)c3cccnc23)c(=O)n(C)c2ccc(F)cc12 (atropisomer, axis not shown) [Example 187]
[2]
  EC50: 1.1 nM

## 2,6-difluoro-4-(3-(trifluoromethyl)morpholino)benzoic acid [Example 81]
[1]
  EC50: 6 nM

## COc1cc(F)cc(C(F)(F)F)c1-c1ccc(C[C@H](NC(=O)c2c(F)cccc2F)C(=O)O)c2cccnc12 (single isomer, unassigned) [Example 7]
[1]
  EC50: 1.9 nM

## COc1cc(F)cc(C(F)(F)F)c1-c1ccc(C[C@H](NC(=O)c2c(F)cccc2F)C(=O)O)c2cccnc12 (single isomer, unassigned) [Example 8]
[1]
  EC50: 41.4 nM

## CC[C@@H](Nc1cc(F)c(C(=O)N[C@@H](Cc2ccc(-c3cn(C)c(=O)n(C)c3=O)c3ncccc23)C(=O)O)c(F)c1)C(F)(F)F [Example 113, (S)-2-(2,6-difluoro-4-(((R)-1,1,1-trifluorobutan-2-yl)amino)benzamido)-3-(8-(1,3-dimethyl-2,4-dioxo-1,2,3,4-tetrahydropyrimidin-5-yl)quinolin-5-yl)propanoic acid]
[1]
  EC50: 1.2 nM

## CC[C@@H](Nc1cc(F)c(C(=O)N[C@@H](Cc2ccc(-c3c(N4CCC4)cc(C)n(C)c3=O)c3ncccc23)C(=O)O)c(F)c1)C(F)(F)F [Example 184]
[2]
  EC50: 0.9 nM

## N#Cc1ccc(-c2ccc(C[C@H](NC(=O)c3c(F)cc(N4CCOC[C@H]4C(F)(F)F)cc3F)C(=O)O)c3cccnc23)c(Cl)c1 (single isomer, unassigned) [Example 83]
[1]
  EC50: 32.9 nM

## O=C(N[C@@H](Cc1ccc(-c2ncc3ccccc3c2Cl)c2ncccc12)C(=O)O)c1c(F)cccc1F [Example 66, (S)-3-(8-(4-chloroisoquinolin-3-yl)quinolin-5-yl)-2-(2,6-difluorobenzamido)propanoic acid]
[1]
  EC50: 18.9 nM
